The values that follow come from patent US20240109880A1 (Insilico Medicine IP Limited, priority 2021, published 2024).

KAT6A, sequence (Q92794 whole entry): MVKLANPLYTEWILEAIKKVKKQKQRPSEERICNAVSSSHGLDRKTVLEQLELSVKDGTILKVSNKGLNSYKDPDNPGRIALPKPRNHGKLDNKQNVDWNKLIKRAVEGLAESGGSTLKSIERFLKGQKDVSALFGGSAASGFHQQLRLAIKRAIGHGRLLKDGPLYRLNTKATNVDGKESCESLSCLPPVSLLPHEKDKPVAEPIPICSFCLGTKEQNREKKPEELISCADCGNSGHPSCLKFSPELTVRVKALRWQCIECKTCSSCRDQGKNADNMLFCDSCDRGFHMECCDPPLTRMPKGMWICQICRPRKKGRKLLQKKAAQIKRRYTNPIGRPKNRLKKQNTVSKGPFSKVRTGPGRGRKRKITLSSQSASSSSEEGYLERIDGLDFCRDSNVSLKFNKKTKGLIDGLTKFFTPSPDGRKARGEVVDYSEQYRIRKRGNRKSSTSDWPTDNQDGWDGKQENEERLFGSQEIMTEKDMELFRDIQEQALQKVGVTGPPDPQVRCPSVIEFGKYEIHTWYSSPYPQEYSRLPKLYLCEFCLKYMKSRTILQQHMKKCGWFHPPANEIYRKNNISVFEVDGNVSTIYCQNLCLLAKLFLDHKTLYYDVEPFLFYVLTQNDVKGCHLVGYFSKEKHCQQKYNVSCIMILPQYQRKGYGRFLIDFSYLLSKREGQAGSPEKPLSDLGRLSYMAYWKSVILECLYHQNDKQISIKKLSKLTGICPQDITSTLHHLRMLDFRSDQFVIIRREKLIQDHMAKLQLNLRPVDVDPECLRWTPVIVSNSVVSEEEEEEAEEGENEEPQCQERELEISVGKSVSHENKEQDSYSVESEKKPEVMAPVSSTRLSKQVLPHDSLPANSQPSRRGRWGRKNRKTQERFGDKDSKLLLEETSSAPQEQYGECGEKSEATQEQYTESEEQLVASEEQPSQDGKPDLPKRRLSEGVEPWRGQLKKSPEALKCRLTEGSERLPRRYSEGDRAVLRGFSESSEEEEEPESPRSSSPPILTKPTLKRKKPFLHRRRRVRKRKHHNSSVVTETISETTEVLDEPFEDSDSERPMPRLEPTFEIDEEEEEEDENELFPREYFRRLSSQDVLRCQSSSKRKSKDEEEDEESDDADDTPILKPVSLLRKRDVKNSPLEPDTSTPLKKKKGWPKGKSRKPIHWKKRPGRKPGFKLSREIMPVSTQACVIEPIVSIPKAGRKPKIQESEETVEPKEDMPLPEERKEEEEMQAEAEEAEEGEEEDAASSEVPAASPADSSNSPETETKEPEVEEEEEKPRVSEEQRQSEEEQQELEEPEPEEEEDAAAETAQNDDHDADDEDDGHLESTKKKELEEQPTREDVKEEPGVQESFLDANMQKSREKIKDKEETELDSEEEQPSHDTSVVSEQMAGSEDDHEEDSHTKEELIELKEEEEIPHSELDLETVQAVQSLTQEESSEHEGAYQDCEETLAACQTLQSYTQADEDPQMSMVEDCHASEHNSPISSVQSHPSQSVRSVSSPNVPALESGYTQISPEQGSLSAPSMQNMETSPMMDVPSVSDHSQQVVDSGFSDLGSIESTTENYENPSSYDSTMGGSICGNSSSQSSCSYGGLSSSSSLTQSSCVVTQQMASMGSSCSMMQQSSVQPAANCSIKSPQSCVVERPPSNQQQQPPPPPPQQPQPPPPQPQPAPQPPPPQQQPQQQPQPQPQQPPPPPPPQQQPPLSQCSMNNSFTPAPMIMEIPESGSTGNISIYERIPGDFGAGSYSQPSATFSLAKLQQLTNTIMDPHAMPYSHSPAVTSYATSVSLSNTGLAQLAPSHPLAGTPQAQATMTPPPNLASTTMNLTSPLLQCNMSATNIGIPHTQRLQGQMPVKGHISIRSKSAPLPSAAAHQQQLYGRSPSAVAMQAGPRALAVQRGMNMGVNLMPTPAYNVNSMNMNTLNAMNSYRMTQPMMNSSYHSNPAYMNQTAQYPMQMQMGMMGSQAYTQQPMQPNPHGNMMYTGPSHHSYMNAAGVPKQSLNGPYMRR

The assay concerns the target KAT6A (Homo sapiens (Human), UniProt Q92794). The assay can be described thus: KAT6A Biochemical Assay (radiometric 384-well, [3H]-Ac-CoA, biotinylated H4(1-30) peptide). To be noted: 5 nM KAT6A enzyme solution (2×), 60 min reaction at room temperature. How it is done: Inhibition of KAT6A enzymatic activity by test compounds was determined using a radiometric 384-well format assay. A 10-point serial dilution of the test compounds were conducted in DMSO and then a volume of 200 nL was transferred into 384-well assay plate by Echo (Labcyte). 10 μL of 2× enzyme solution (5 nM KAT6A (Active Motif) in assay buffer (50 mM Tris-HCl pH 8.0, 50 mM KCl, 0.1 mM EDTA, 5% glycerol, 1 mM DTT)) was dispensed into assay plate except for low control wells, in which 10 μL of assay buffer was transferred. The plate was incubated at room temperature for 15 min before addition of 10 μL of 2×[^3H]-acetyl coenzyme A (Ac-CoA) and substrate peptide mix solution (500 nM (KAT6A) [^3H]-Ac-CoA (PerkinElmer) and 800 nM (KAT6A) biotinylated H4(1-30) peptide (GL Biochem) in assay buffer) to each well to start reaction. The plate was incubated at room temperature for 60 min (KAT6A), and then the reaction was stopped by adding 10 μL of stop solution (cold Ac-CoA (Cayman) in 1× assay buffer). 25 μL of reaction in each well was transferred to Flashplate (PerkinElmer) and incubated for another 1 hour at room temperature. The plate was read on Microbeta and the inhibition percentage of each compound treated well was calculated based on the equation in h %=(Max−sample)/(Max−Min)*100 where Max is signal from high control wells with enzyme, and Min is signal from low control wells with assay buffer only. The in h % data were further fit in XL-Fit to obtain IC50 values using a 4-parameter logistic (4PL) sigmoidal curve model.
`COc1cc(C(F)F)nc(OC)c1S(=O)(=O)Nc1noc2cc(Cn3cccn3)cc(OC)c12` [Compound 40, N-(6-((1H-pyrazol-1-yl)methyl)-4-methoxybenzo[d]isoxazol-3-yl)-6-(difluoromethyl)-2,4-dimethoxypyridine-3-sulfonamide] came in with a half-inhibitory concentration (IC50) of 10 to 1000 nM.
`COc1cc(C2CC2)nc(OC)c1S(=O)(=O)Nc1noc2cc(Cn3cccn3)cc(OC)c12` [Compound 39, N-(6-((1H-pyrazol-1-yl)methyl)-4-methoxybenzo[d]isoxazol-3-yl)-6-cyclopropyl-2,4-dimethoxypyridine-3-sulfonamide] gave an IC50 of 10 to 100 nM.
The result for `COc1cc(C2CC2)nc(OC)c1S(=O)(=O)Nc1noc2cc(Cn3cccn3)cc(OCF)c12` [Compound 49, N-(6-((1H-pyrazol-1-yl)methyl)-4-(fluoromethoxy)benzo [d]isoxazol-3-yl)-6-cyclopropyl-2,4-dimethoxypyridine-3-sulfonamide] reads 10 to 100 nM; that for `CCc1cc(OC)c(S(=O)(=O)Nc2noc3cc(Cn4cccn4)cc(OCF)c23)c(OC)n1` [Compound 52, N-(6-((1H-pyrazol-1-yl)methyl)-4-(fluoromethoxy)benzo[d]isoxazol-3-yl)-6-ethyl-2,4-dimethoxypyridine-3-sulfonamide], 10 to 100 nM.
The result for `COc1cccc(OC)c1S(=O)(=O)Nc1noc2cc(Oc3ncccn3)c3c(c12)OCCC3` [Compound 33, 2,6-dimethoxy-N-(5-(pyrimidin-2-yloxy)-3,4-dihydro-2H-chromeno[8,7-d]isoxazol-9-yl)benzenesulfonamide] reads 10 to 100 nM.
`COc1ccccc1S(=O)(=O)Nc1noc2cc(Oc3ccccn3)c3c(c12)OCC3` [Compound 26, 2-methoxy-N-(4-(pyridin-2-yloxy)-2,3-dihydrobenzofuro[7,6-d]isoxazol-8-yl)benzenesulfonamide] came in with an IC50 of 10 to 100 nM.
The value for `COc1cccc(OC)c1S(=O)(=O)Nc1noc2cc(Oc3ncco3)c3c(c12)OCCC3` [Compound 34, 2,6-dimethoxy-N-(5-(oxazol-2-yloxy)-3,4-dihydro-2H-chromeno[8,7-d]isoxazol-9-yl)benzenesulfonamide] was less than 10 nM; that for `CC#Cc1cc(OC)c(S(=O)(=O)Nc2noc3cc(Cn4cccn4)cc(OCF)c23)c(OC)n1` [Compound 53, N-(6-((1H-pyrazol-1-yl)methyl)-4-(fluoromethoxy)benzo[d]isoxazol-3-yl)-2,4-dimethoxy-6-(prop-1-yn-1-yl)pyridine-3-sulfonamide] was 10 to 100 nM; that for `COc1cc(C)nc(OC)c1S(=O)(=O)Nc1noc2cc(Cn3cccn3)c3c(c12)OCC1CC31` (stereo not shown) [Compound 69, N-(7-((1H-pyrazol-1-yl)methyl)-5,5a,6,6a-tetrahydrocyclopropa[3,4]chromeno[8,7-d]isoxazol-3-yl)-2,4-dimethoxy-6-methylpyridine-3-sulfonamide] was less than 10 nM.
The compound `COc1cc(C)nc(OC)c1S(=O)(=O)Nc1noc2cc(Cn3cccn3)c(F)c(OC(F)F)c12` [Compound 44, N-(6-((1H-pyrazol-1-yl)methyl)-4-(difluoromethoxy)-5-fluorobenzo[d]isoxazol-3-yl)-2,4-dimethoxy-6-methylpyridine-3-sulfonamide] showed an IC50 of 10 to 100 nM.
Turning to `COc1cc(C)nc(OC)c1S(=O)(=O)Nc1noc2cc(Cn3cccn3)c(F)c(OCF)c12` [Compound 43, N-(6-((1H-pyrazol-1-yl)methyl)-5-fluoro-4-(fluoromethoxy)benzo[d]isoxazol-3-yl)-2,4-dimethoxy-6-methylpyridine-3-sulfonamide], the IC50 was in the range of 10 to 100 nM.
The value for `COc1cccc(OC)c1S(=O)(=O)Nc1noc2cc(Cc3nccs3)cc(OCF)c12` [Compound 65, N-(4-(fluoromethoxy)-6-(thiazol-2-ylmethyl)benzo[d]isoxazol-3-yl)-2,6-dimethoxybenzenesulfonamide] was less than 10 nM; that for `COc1cccc(OC)c1S(=O)(=O)Nc1noc2cc(Cn3cccn3)cc(OC(F)F)c12` [Compound 3, N-(6-((1H-pyrazol-1-yl)methyl)-4-(difluoromethoxy)benzo[d]isoxazol-3-yl)-2,6-dimethoxybenzenesulfonamide] was less than 10 nM.
